In patent publication US5447915A, “Terminally blocked antiviral peptides” (priority 1992, dated 1995):
Non-standard residues stand in square brackets, D forms with d. Residues, ends and D or L forms follow the SMILES beside them. *: point of attachment. OBn = c1ccc(CO*)cc1

Assays:
[1] = biological target: T1, human immunodeficiency virus (HIV-1) glycoprotein gp120 (Human immunodeficiency virus type 1 group M subtype B, UniProt P03375); assay type: binding; conditions: HSBCD4-M.23 cells; for inhibition of gp120 binding to CD4 (corrected mean fluorescence of CD4-expressing cells): gp120 preincubated with peptide 1 hour 37° C., about 50 μM to 900 μM
T1 construct: a solution of gp120 (20 μg/ml) (synthesized in vitro from baculovirus and obtained from MicroGeneSys); purchased MicroGeneSys, West Haven, Conn; host or cells: gp120 from baculovirus expression; CD4 on HSBCD4-M.23 cells (HSB-2 clone transfected with CD4 cDNA)
Experimental: The peptides prepared as described in Example 1 were characterized as to their ability to bind to the human immunodeficiency virus (HIV-1) glycoprotein gp120. This ability was assayed on the basis of the peptides ability to inhibit binding of gp120 to the human CD4 protein.
On the day of the assay the peptides were diluted 10-fold in phosphate buffered saline (PBS) and 2-fold serial dilutions made into PBS previously adjusted to the same DMSO concentration (10%). 25 μl each of each peptide solution and a solution of gp120 (20 μg/ml) (synthesized in vitro from baculovirus and obtained from MicroGeneSys, West Haven, Conn.) were combined and incubated at 37° C. for 1 hour. A total of 3-5×10^5 HSBCD4-M.23 cells [derived from a clone of the pre-T cell leukemia line HSB-2 (obtained from the American Type Culture Collection (ATCC), Rockville, Md.) which expresses human CD4 as a result of transfaction of CD4 cDNA sequences; Diamond et al., Proc. Natl. Acad. Sci. 87: xxxx (1990)] were pelleted in the walls of a 96-well V-bottom microtiter plate, resuspended with the preincubated gp 120-peptide mixture and allowed to incubate at 4° C. for 1 hour. The cells were then pelleted and resuspended in 50μl of a solution containing rabbit anti-gp120 antibody (diluted 1:400 in PBS; MicroGeneSys, West Haven, Conn.) and incubated at 4° C. for 30 min. The cells were again pelleted, washed with 100 μl PBS and resuspended in 50μl of a solution containing fluorescein isothiocyanate (FITC)-conjugated goat anti-rabbit antibody (diluted 1:20; Tago) and incubated at 4° C. for 30 min. The cells were pelleted and washed as before, and resuspended in 100 μl of a solution containing propidium iodine at a concentration of 25 μg/ml and transferred to tubes containing 400 μl PBS for flow cytometric analysis on an Epics V (Coulter) for FAtScan (Betton-Dickinson,Mountainview, Calif.). Cells were gated on propidium iodide to exclude dead cells. Green fluorescence was collected on the linear amplifier and the mean fluorescence calculated.

[2] = test system: IL-2 production in 16CD4-9 T cell hybridoma cells; conditions: peptide 200 μg/ml, gp120 5-10 μg/ml, diluted 20-fold and reconcentrated by ultrafiltration
Experimental: These gp120 solutions were then diluted 20-fold with PBS and the gp120 reconcentrated by ultrafiltration as described in Example 2. The recovered gp120 solutions were then combined with 1×10^5 16CD4-9 T cell hybridoma cells (available from ATCC) and 2×10^5 Daudi cells and cultured overnight at 37° C. IL-2 was detected in the culture supernatants using a cell proliferation assay [Watson, J. Exp. Med. 150: 1510-1515 (1979)], with the modification that proliferation was detected colorimetrically as the cleavage of 3-(4,5-dimethyl-thiazol)-2,6-diphenyl-tetrazolium bromide (MTT) [Finberg et al., Science 249: 287-291 (1990)].

[3] = test system: HIV; assay: Inhibition of HIV infection of CD4-expressing human peripheral blood lymphocytes, p24 antigen; assay type: cell-based; conditions: peptide 160 μg/ml; human T cells from PBL
Experimental: These cells were obtained by depleting peripheral blood mononuclear cells isolated by passage through nylon wool [Finberg et al., Science 249: 287-291 (1990)]using antibodies specific for CD8 (OKTS, obtained from ATCC) and CD16 (B73.1, a gift of G. Trinchieri) followed by treatment with antibody-coated magnetic beads [Haregerwoin et al., Nature 340: 309 (1989)]. This treatment enriches the cell population for CD4-expressing human peripheral T cells. Virus was incubated for 1 hour at 37° C. with varying concentrations of CPF(DD), or with CPF(6F) at a concentration of 160 μg/ml. The treated virus preparation was then incubated with cells for 1 hour at 37° C. Cells were washed twice and maintained in RPMI 1640/10% FCS supplemented with interleukin 2 [10 units/ml, Collaborative Research]. Cells were maintained and assayed for p24 production as described above.

[4] = test system: HIV-1; conditions: peptide 80 μg/ml; after 4 days of co-cultivation for CPF(DD)
Experimental: PBL-derived human T cells, infected with HIV-1, were washed extensively with RPMI 1640 media and then 10^4 infected T cells were added to 5×10^5 uninfected H9 cells in the presence or absence of CPF(DD) or CPF(δF) at concentrations of 80 μg/ml. Cells were co-cultivated and maintained at H9 cell densities of 5×10^5 cells/ml and tested after 2, .varies.and 6 days of co-cultivation. The extent of infection of H9 cells was determined by p24 antigen ELISA assay, performed 48 hours after washing the T-cell-H-9 cell mixture free of virus.

[5] = test system: conjugate formation between HBSCD4-M.23 cells and Daudi cells; conditions: peptide 100 μg/ml, gp120 20 μg/ml
Experimental: Conjugate formation was assayed using HBSCD4-M.23 cells and cells from the human MHC-expressing cell line Daudi (available from ATCC). The HBSCD4-M.23 cells were labeled with 0.5 μg/ml sulfofluorescein diacetate (Molecular Probes, Eugene, Oreg.) and the Daudi cells were labeled with 40 ng/ml hydroethidine (Polysciences, Warrington, Pa.) and mixed at a 1:2 ratio (HBSCD4-M.23:Daudi) at a total concentration of 1×10^6 cells/mi. Cells were then incubated in 30 μl RPMI 1640 media at 37° C. for at least 90 minutes in the presence or absence of CPF(DD) or CPF(δF) (at concentrations of 100 μg/ml) and gp120 (20 μg/ml). At the end of the incubation, the cells were gently resuspended to preserve conjugates and scored by fluorescence microscopy. Positive conjugates were scored as at least two cells displaying one fluorescent color bound to at least one cell displaying the other fluorescent color. Samples were analyzed blinded as to their identity, and in duplicate, and at least three counts of 100 fluorescein-labeled cells were performed for each sample. The percentage of conjugates scored was calculated as the total number of conjugates scored divided by the total number of conjugates plus free CD4-expressing (fluorescein-labeled) cells.

`O=C(N[C@H](Cc1ccccc1)C(=O)OCc1ccccc1)[C@H]1CCCN1` [(DD) prolylphenylalanylbenzylester] (H-[dP]-[dF]-OBn) was tested, and the “inhibition of gp120 binding to CD4 (corrected mean fluorescence of CD4-expressing cells)” value (from here on “inhibition of gp120 binding to CD4”) [1] was “unable to inhibit gp120 binding”.

For `COC(=O)C(=O)N[C@H](Cc1ccccc1)C(=O)OCc1ccccc1` [CPF(δP), N-carbomethoxylcarbonyl-D-Phe-OBn], the “inhibition of gp120 binding to CD4” value [1] was “does not inhibit gp120 binding to CD4-expressing human cells”.

With “N-carbomethoxylcarbonyl-D-Pro-D-Ala-OBn [CPF(F→A)]” the “concentration giving 50% inhibition of gp120 binding, fold higher than for CPF(LL)” value ([1]; in comparison with CPF(LL)) was 2-5 fold.

In the case of `COC(=O)C(=O)N1CCC[C@@H]1C(=O)OCc1ccccc1` [CPF(δF), N-carbomethoxylcarbonyl-D-Pro-OBn], the “IL-2 production in presence of gp120 preincubated with peptide” value [2] is reported as “slight increase in the amount of IL-2”, the “kinetics and maximum production of p24” value [3] is reported as “does not effect either the kinetics or the maximum production of p24” and the “p24 antigen in supernatant after co-cultivation of infected T cells and uninfected H9 cells” value [4] is reported as “no different from those detected in co-cultures of T cells and H9 cells incubated without peptides”. The “conjugate formation in presence of gp120 preincubated with peptide” value [5] was “does not restrict gp120-mediated inhibition of conjugate formation” and the “inhibition of gp120 binding to CD4” value [1] was “does not inhibit gp120 binding to CD4-expressing human cells”.
